Measurements published in patent US9017644B2, “Methods of treating autoimmune disorders and/or inflammatory disorders” (priority 2008, dated 2015).

Tests used:
[1] = test system: developing type II collagen arthritis; experiment: Rat collagen arthritis model, prophylactic IV treatment 3x/week, day 0-16 (Example 3); assay type: in vivo
Text: (§1) Rat collagen induced arthritis is an experimental model of polyarthritis that has been widely used for preclinical testing of numerous anti-arthritic agents. Rat type II collagen arthritis results when rats are immunized against homologous or heterologous type II collagen. […] As used herein “significant” means that p≦0.05. Unless specified as “normal control” or “disease control” reference to “animal” means a rat with developing type II collagen arthritis.
(§2) Bovine Type II collagen (Sigma) was diluted with 0.1N acetic acid to a concentration of 4 mg/ml. and emulsified with an equal volume of Freund's incomplete adjuvant (Sigma).
The rats were anesthetized and given collagen injections spread over 3 subcutaneous sites on back on day 0 and day 6.

[2] = test system: developing type II collagen arthritis; experiment: Rat collagen arthritis model, dose responsive efficacy, IV or SC 2x/week (Example 4); assay type: in vivo; conditions: IV 2x/week, read-out: average ED50 value for efficacy (AUC+Final Paw Weight)
Text: as §1, §2
(§3) The rats were anesthetized and given collagen injections spread over 3 subcutaneous sites on back on day 0 and day 6. […] Rats were weighed on days 0, 3, 6, and 9-18 of the study, and caliper measurements of ankles were taken every day beginning on day 9 (or day 0 of arthritis). After final body weight measurement on day 18, animals were euthanized, blood was drawn for serum (for clinical chemistries) and CBC analysis and tissues were collected. No clinical chemistry or CBC analysis was done for groups 5s and 12s, however these groups were sampled for drug levels for pharmacokinetic analysis.

[3] = Lewis, rat, in vivo, 18 day
Text: as §3
Complete Blood Counts (CBC) and Clinical Chemistries were evaluated for each group.

[4] = test system: developing type II collagen arthritis; experiment: Rat collagen arthritis model, treatment alone or in combination with etanercept (Example 5); assay type: in vivo; conditions: for % decrease in ankle diameter verses disease control, drug alone: day 17
Text: as §1
Bovine Type II collagen (Sigma) was diluted with 0.1N acetic acid to a concentration of 4 mg/ml. and emulsified with an equal volume of Freund's incomplete adjuvant (Sigma). Female Lewis rats (Charles River) were randomized by weigh into 10 study groups Table 3 identifies the groups that were used for evaluation of efficacy and Table 4 identifies the groups used for evaluation of toxicity.
Animals were anesthetized and immunized at the base of the tail and two sites on the back on day 0 and day 6. Animals were weighed on days 0, 3, 9-24. […] Treatment was administered either alone or in combination with etanercept, (1 mg/kg) dosed subcutaneously on days 9, 12 and 15. […] The remaining 4 animals were sacrificed for necropsy on day 16.

[5] = Observation on high dose MTX dosing preparation; assay type: physicochemical; conditions: 0.75 mg/kg dose preparation
[6] = batches 70 mg/kg, methotrexate 0.2 mg/kg, FIG. 5

Molecule | inhibition of ankle diameter AUC as compared to disease controls ([1]; Batch 1 and Batch 2 70 mg/kg, MTX 0.2 mg/kg, IV 3x/week, 17 day study) [%] | inhibition of final paw weights as compared to disease controls ([1]; Batch 1 and Batch 2 70 mg/kg, MTX 0.2 mg/kg, IV 3x/week, day 17) [%] | ankle cartilage damage, representative photomicrograph [1, 6] | ankle pannus and bone destruction, representative photomicrograph [1, 6] | ankle synovitis, representative photomicrograph [1, 6] | ED50 [2] [mg/kg] | therapeutic index, considering bone marrow suppression at 0.5 mg/kg ([3]; 0.5 mg/kg) | dose value for life threatening toxicity (bone marrow suppression) ([3]; iv) [mg/kg] | % decrease in ankle diameter verses disease control, drug alone ([4]; 0.25 mg/kg PO 2x/week) [%] | decreases in ankle diameter from disease control, alone or in combination with etanercept ([4]; ATI-101 5, 20 and 65 mg/kg, MTX 0.25 mg/kg) | behaviour of high dose preparation in solution [5] | % decrease in ankle diameter verses disease control, drug alone ([4]; 1 mg/kg SC days 9, 12, 15) [%]
CN(Cc1cnc2nc(N)nc(N)c2n1)c1ccc(C(=O)N[C@@H](CCC(=O)O)C(=O)O)cc1 [MTX, Methotrexate] | 54 | 46 | minimal | minimal | moderate | 0.25 | less than 2 | 0.75 | 52 | Significant decreases | did not remain completely in solution | 
etanercept |  |  |  |  |  |  |  |  |  |  |  | 37
